Data published in PubChem BioAssay (NCI).
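Interpolation was linear, between the two tested concentrations surrounding the appropriate level; five concentrations were tested over 48 hours in 96-well plates. GI50 = concentration required for 50% inhibition of growth. TGI: total growth inhibition.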

Assays:
Assay in all cases: DTP human tumour cell line panel, 48 h
UACC-257 melanoma = tested on: UACC-257 melanoma
HL-60(TB) leukemia = tested on: HL-60(TB) leukemia
IGROV1 ovarian = tested on: IGROV1 ovarian
A498 renal = tested on: A498 renal
A549 NSCLC = tested on: A549 NSCLC
OVCAR-4 ovarian = tested on: OVCAR-4 ovarian
SF-539 CNS = tested on: SF-539 CNS
EKVX NSCLC = tested on: EKVX NSCLC
NCI-H522 lung = tested on: NCI-H522 lung
RPMI-8226 leukemia = tested on: RPMI-8226 leukemia
HOP-92 NSCLC = tested on: HOP-92 NSCLC
CAKI-1 renal = tested on: CAKI-1 renal
M14 melanoma = tested on: M14 melanoma
786-0 renal = tested on: 786-0 renal
OVCAR-3 ovarian = tested on: OVCAR-3 ovarian
UO-31 renal = tested on: UO-31 renal
MOLT-4 leukemia = tested on: MOLT-4 leukemia
K-562 leukemia = tested on: K-562 leukemia
CCRF-CEM leukemia = tested on: CCRF-CEM leukemia
BT-549 breast = tested on: BT-549 breast
SF-268 CNS = tested on: SF-268 CNS
HCC-2998 colon = tested on: HCC-2998 colon
SF-295 CNS = tested on: SF-295 CNS
PC-3 prostate = tested on: PC-3 prostate
HCT-15 colon = tested on: HCT-15 colon
SK-MEL-28 melanoma = tested on: SK-MEL-28 melanoma
LOX IMVI melanoma = tested on: LOX IMVI melanoma
NCI-H23 lung = tested on: NCI-H23 lung
SNB-19 CNS = tested on: SNB-19 CNS

SMILES: O=C(/C=C/c1cccc(Br)c1)c1nc2ccccc2n1Cc1ccc(Br)cc1
- GI50 (UACC-257 melanoma): 3.04 µM
- TGI (UACC-257 melanoma): 12 µM
- GI50 (HL-60(TB) leukemia): 1.75 µM
- TGI (HL-60(TB) leukemia): 5.12 µM
- GI50 (IGROV1 ovarian): 2.16 µM
- TGI (IGROV1 ovarian): 5.4 µM
- GI50 (A498 renal): 13.5 µM
- TGI (A498 renal): 28.1 µM
- GI50 (A549 NSCLC): 3.97 µM
- TGI (A549 NSCLC): > 100 µM
- GI50 (OVCAR-4 ovarian): 4.07 µM
- TGI (OVCAR-4 ovarian): > 100 µM
- GI50 (SF-539 CNS): 1.99 µM
- TGI (SF-539 CNS): 3.92 µM
- GI50 (EKVX NSCLC): 2.4 µM
- TGI (EKVX NSCLC): 7.64 µM
- GI50 (NCI-H522 lung): 1.73 µM
- TGI (NCI-H522 lung): 3.48 µM
- GI50 (RPMI-8226 leukemia): 2.39 µM
- TGI (RPMI-8226 leukemia): 8.27 µM
- GI50 (HOP-92 NSCLC): 1.6 µM
- TGI (HOP-92 NSCLC): 6.46 µM
- GI50 (CAKI-1 renal): 1.85 µM
- TGI (CAKI-1 renal): 5.35 µM
- GI50 (M14 melanoma): 1.77 µM
- TGI (M14 melanoma): 3.59 µM
- GI50 (786-0 renal): 1.86 µM
- TGI (786-0 renal): 3.7 µM
- GI50 (OVCAR-3 ovarian): 1.56 µM
- TGI (OVCAR-3 ovarian): 3.3 µM
- GI50 (UO-31 renal): 1.37 µM
- TGI (UO-31 renal): 2.78 µM
- GI50 (MOLT-4 leukemia): 2.11 µM
- TGI (MOLT-4 leukemia): 9.16 µM
- GI50 (K-562 leukemia): 2.6 µM
- TGI (K-562 leukemia): > 100 µM
- GI50 (CCRF-CEM leukemia): 2.09 µM
- TGI (CCRF-CEM leukemia): > 100 µM
- GI50 (BT-549 breast): 1.77 µM
- TGI (BT-549 breast): 3.55 µM
- GI50 (SF-268 CNS): 4.93 µM
- TGI (SF-268 CNS): 71.7 µM
- GI50 (HCC-2998 colon): 1.69 µM
- TGI (HCC-2998 colon): 3.12 µM
- GI50 (SF-295 CNS): 2.07 µM
- TGI (SF-295 CNS): 5.11 µM
- GI50 (PC-3 prostate): 3.3 µM
- TGI (PC-3 prostate): 14.9 µM
- GI50 (HCT-15 colon): 1.56 µM
- TGI (HCT-15 colon): 3.19 µM
- GI50 (SK-MEL-28 melanoma): 1.82 µM
- TGI (SK-MEL-28 melanoma): 3.68 µM
- GI50 (LOX IMVI melanoma): 1.5 µM
- TGI (LOX IMVI melanoma): 2.9 µM
- GI50 (NCI-H23 lung): 1.77 µM
- TGI (NCI-H23 lung): 3.99 µM
- GI50 (SNB-19 CNS): 1.77 µM
- TGI (SNB-19 CNS): 3.64 µM
